Positions count from the first letter of the chain named.
Key:
[1] = target: T1, HarA (harmaline-metabolizing enzyme, copper amine oxidase) (Arthrobacter sp., UniProt A0A5A4PV14); test: resonance Raman and anaerobic UV-vis spectroscopy; assay type: binding; conditions: covalent imine adduct with TPQ, difference against Y379F
T1 construct: purified from strain C-4A, or recombinant from E. coli BL21-CodonPlus(DE3)-RIL (pETDuet-harA); 71 kDa subunit, 130 kDa native, homodimer; TPQ cofactor from Y379, Cu2+
T1 sequence (A0A5A4PV14 1-649): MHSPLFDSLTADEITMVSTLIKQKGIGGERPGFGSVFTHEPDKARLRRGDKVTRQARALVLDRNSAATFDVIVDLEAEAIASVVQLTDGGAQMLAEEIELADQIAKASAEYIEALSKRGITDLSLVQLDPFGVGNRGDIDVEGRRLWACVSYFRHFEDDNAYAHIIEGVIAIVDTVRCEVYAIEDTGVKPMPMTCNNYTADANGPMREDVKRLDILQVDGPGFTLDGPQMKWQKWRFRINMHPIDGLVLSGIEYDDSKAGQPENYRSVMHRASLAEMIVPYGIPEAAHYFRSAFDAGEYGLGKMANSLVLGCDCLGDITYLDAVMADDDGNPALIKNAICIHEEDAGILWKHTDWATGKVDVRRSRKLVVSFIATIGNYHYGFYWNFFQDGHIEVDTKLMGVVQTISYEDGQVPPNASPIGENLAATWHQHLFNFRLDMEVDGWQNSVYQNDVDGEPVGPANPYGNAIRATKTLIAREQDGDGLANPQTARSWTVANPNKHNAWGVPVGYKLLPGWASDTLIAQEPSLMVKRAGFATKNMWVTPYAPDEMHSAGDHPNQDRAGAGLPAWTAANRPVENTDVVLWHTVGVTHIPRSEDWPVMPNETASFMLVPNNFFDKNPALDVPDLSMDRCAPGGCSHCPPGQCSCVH

[2] = target: T2, ECAO (copper amine oxidase from E. coli) (Escherichia coli, UniProt P46883); test: LC/MS or HPLC product detection; assay type: biochemical; conditions: 0.5 mg/mL enzyme
T2 construct: gene tynA; recombinant, pET24a(+)-tynA in E. coli BL21-CodonPlus(DE3)-RIL, purified; TPQ cofactor
T2 sequence (P46883 31-757): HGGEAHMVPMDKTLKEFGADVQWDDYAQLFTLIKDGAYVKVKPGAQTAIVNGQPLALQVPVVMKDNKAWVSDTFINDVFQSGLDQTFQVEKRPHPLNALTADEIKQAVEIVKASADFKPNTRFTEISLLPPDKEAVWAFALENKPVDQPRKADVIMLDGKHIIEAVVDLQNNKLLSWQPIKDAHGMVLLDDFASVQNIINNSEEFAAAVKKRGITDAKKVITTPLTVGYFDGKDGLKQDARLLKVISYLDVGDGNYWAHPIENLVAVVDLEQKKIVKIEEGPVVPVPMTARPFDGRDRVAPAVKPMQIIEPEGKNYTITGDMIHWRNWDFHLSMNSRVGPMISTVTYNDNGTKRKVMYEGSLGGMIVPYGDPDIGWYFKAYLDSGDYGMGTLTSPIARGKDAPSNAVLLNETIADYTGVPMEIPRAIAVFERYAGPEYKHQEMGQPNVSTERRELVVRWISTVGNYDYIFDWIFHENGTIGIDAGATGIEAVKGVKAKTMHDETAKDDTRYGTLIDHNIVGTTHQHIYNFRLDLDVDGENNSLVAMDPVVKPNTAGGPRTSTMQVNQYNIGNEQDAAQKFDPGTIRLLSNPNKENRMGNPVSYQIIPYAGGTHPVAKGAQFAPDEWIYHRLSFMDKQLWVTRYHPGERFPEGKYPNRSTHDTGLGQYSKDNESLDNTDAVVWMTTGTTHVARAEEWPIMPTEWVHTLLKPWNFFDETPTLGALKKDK

[3] = target: T1, HarA (harmaline-metabolizing enzyme, copper amine oxidase); test: LC/MS/MS of chymotryptic nonapeptide; phenylhydrazine titration; assay type: binding; conditions: covalent; adduct with TPQ cofactor (Y379); […] Tris-HCl pH […] digest
[4] = target: T3, HarA (harmaline-metabolizing enzyme, copper amine oxidase) (Arthrobacter sp., UniProt A0A5A4PV14, D295E); test: LC/MS product detection; assay type: biochemical; conditions: […] Hepes-NaOH pH […] °C
T3 construct: purified from strain C-4A, or recombinant from E. coli BL21-CodonPlus(DE3)-RIL (pETDuet-harA); 71 kDa subunit, 130 kDa native, homodimer; TPQ cofactor from Y379, Cu2+
T3 sequence (A0A5A4PV14 1-649 D295E): T1 sequence (A0A5A4PV14 1-649) with D295E

[5] = system: COc1ccc2c3c([nH]c2c1)C(C)=NCC3; test: purified protein; conditions: 20 mM Hepes-NaOH pH 7.0, 28 °C, O2 co-substrate
C=C1CCCCN1 = test: purified protein; conditions: 20 mM Hepes-NaOH pH 7.0, 28 °C, O2 co-substrate, named as the enamine tautomer, treated in the paper as a cyclic imine

NCc1ccccc1 [BA, benzylamine] was tested, and the “resonance Raman and anaerobic UV-vis spectroscopy” value [1] was “we observed a benzylamine adduct, which would be the inactive deprotonated imine intermediate, in HarA”.

For COc1ccc2c3c([nH]c2c1)C(C)=NCC3 [harmaline], the “LC/MS or HPLC product detection” value [2] was “The purified ECAO was able to convert harmaline into 2-AIMA”.

In the case of NNc1ccccc1 [phenylhydrazine], the “LC/MS/MS of chymotryptic nonapeptide; phenylhydrazine titration” value [3] is reported as “TPQ was also detected as a phenylhydrazine adduct in the nonapeptide”.

For NCCc1c[nH]c2ccccc12 [tryptamine], the LC/MS product detection [4] was “D295E mutant catalyzed deamination of tryptamine, although the activity was less than that of wild-type”.

With “HarA (harmaline-metabolizing enzyme, copper amine oxidase) (Arthrobacter sp.)” the Km [5] was 439 µM and the Km (C=C1CCCCN1) was 1700 µM.

From publication PMC6345859, “Copper amine oxidases catalyze the oxidative deamination and hydrolysis of cyclic imines” (Nature Communications, 2019)
